Consider six compounds from ChEMBL document CHEMBL3991601, “The target landscape of clinical kinase drugs” (Science, 2017).

Structures are written as SMILES. Calls of active or inactive are those of the source. Rule as the data show it, for most assays here: actives have a measured Kd and inactives only a lower limit. Where only a bound is given, the exact number is not on record here.

Assay [1] has as its target Calcium/calmodulin-dependent protein kinase type II subunit delta (Homo sapiens, UniProt Q13557).
Assay [2] has as its target Serine/threonine-protein kinase MRCK alpha (Homo sapiens, UniProt Q5VT25).
For assay [3], the target named is DnaJ homolog subfamily A member 1 (Homo sapiens, UniProt P31689).
For assay [4], the target named is Serine/threonine-protein kinase PAK 2 (Homo sapiens, UniProt Q13177).
In assay [5] the target is Serine/threonine-protein kinase N1 (Homo sapiens, UniProt Q16512).
The target of assay [6] is T1, Structural maintenance of chromosomes protein 1A (Homo sapiens, UniProt Q14683).
T1 sequence (Q14683 whole entry): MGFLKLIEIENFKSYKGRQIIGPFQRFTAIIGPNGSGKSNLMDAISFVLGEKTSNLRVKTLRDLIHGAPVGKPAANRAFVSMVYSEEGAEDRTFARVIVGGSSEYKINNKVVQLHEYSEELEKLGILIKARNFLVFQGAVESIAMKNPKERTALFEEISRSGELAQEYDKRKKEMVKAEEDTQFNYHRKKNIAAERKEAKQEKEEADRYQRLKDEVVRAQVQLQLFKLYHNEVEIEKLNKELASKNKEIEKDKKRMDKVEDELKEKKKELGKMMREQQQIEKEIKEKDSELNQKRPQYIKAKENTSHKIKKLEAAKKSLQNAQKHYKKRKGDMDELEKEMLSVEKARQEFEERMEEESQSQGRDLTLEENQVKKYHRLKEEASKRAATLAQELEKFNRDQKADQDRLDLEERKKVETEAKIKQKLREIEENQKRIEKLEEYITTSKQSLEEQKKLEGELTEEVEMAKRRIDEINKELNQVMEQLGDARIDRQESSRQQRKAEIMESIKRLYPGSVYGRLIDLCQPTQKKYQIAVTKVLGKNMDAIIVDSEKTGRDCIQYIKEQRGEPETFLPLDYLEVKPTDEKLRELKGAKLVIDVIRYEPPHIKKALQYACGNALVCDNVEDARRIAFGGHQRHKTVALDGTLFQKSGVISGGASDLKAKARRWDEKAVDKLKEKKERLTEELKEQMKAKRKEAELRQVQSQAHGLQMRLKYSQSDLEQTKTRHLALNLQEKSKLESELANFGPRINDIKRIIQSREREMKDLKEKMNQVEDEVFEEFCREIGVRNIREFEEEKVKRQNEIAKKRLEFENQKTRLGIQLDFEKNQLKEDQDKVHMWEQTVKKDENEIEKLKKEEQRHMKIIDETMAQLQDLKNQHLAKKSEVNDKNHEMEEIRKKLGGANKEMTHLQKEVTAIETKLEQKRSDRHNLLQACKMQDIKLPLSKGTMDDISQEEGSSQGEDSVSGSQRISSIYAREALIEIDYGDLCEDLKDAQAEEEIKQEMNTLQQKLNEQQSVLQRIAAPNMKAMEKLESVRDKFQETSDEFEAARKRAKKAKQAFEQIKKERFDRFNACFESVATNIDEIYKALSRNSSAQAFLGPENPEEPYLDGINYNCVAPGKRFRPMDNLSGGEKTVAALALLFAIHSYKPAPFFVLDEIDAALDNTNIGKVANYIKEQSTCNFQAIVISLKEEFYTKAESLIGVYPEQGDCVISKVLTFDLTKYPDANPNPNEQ

Assay [7] concerns the target Serine/threonine-protein kinase 10 (Homo sapiens, UniProt O94804).
Another assay has as its target T2, TGF-beta receptor type-1 (Homo sapiens, UniProt P36897).
T2 sequence (P36897 whole entry): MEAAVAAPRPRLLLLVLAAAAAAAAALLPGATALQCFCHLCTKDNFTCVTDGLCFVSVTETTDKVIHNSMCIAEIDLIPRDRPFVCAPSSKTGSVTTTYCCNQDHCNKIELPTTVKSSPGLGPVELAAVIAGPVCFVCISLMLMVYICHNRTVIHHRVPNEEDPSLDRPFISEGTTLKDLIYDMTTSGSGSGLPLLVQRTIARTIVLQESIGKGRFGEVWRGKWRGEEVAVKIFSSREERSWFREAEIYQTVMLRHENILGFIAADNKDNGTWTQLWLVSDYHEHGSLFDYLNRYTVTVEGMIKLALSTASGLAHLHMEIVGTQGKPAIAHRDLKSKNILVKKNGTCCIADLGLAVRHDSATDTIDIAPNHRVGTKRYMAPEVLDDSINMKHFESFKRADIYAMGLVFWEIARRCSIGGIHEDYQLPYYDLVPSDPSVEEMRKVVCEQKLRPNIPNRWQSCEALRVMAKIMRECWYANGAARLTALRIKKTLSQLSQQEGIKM

For the next assay, the target named is Wee1-like protein kinase (Homo sapiens, UniProt P30291).
Assay [8] deals with T3, General transcription and DNA repair factor IIH helicase subunit XPD (Homo sapiens, UniProt P18074).
T3 sequence (P18074 whole entry): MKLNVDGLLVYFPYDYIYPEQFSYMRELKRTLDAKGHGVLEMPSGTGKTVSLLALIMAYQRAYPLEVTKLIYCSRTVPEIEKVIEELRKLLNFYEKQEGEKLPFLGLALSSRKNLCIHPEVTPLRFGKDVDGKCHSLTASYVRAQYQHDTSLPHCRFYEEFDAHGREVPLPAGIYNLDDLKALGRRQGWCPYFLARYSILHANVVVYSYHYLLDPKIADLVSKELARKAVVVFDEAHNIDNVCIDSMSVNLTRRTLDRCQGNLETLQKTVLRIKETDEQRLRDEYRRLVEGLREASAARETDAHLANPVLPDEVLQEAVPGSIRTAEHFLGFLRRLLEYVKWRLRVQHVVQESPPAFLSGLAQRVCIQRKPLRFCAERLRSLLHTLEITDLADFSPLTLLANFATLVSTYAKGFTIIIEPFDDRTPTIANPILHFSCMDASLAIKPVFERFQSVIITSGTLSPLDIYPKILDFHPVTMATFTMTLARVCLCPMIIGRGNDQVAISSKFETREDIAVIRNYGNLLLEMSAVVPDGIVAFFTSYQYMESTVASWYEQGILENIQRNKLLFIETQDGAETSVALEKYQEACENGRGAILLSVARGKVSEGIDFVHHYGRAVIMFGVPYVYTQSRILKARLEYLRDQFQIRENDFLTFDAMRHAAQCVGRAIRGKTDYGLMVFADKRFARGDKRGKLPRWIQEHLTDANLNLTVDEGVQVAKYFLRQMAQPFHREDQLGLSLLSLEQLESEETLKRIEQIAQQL
The conditions noted are these: read-out: Kd apparent; k-562, colo 205, sk-n-be(2) and mv-4-11.
Also: in the data inactive means no Kd found up to 30 µM.

Chain of Serine/threonine-protein kinase 10 (O94804 whole entry): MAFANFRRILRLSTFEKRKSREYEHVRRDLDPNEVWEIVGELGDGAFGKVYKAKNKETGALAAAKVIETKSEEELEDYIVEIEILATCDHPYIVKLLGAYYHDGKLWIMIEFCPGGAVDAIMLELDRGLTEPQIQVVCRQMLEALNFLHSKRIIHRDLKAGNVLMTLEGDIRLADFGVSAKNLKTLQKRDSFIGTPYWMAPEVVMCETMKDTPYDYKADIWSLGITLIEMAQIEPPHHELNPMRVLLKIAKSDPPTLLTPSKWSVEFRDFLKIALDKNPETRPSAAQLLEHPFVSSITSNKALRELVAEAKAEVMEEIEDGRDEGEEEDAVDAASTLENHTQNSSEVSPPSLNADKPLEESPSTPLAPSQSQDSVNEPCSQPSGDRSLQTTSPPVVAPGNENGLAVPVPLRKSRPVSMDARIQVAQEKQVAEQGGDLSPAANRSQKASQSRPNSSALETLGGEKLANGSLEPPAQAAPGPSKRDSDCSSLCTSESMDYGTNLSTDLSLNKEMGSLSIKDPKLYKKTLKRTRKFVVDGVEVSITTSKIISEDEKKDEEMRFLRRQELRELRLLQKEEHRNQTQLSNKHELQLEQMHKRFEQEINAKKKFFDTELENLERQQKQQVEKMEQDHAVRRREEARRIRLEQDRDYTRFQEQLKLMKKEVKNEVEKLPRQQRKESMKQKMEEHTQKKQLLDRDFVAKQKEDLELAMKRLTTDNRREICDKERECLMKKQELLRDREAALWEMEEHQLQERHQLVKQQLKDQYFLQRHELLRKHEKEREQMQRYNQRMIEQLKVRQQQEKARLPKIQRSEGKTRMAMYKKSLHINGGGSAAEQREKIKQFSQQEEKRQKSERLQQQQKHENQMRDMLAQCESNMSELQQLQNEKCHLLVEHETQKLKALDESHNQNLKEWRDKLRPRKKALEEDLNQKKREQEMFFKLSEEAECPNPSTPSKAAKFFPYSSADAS
Chain of Serine/threonine-protein kinase N1 (Q16512 whole entry): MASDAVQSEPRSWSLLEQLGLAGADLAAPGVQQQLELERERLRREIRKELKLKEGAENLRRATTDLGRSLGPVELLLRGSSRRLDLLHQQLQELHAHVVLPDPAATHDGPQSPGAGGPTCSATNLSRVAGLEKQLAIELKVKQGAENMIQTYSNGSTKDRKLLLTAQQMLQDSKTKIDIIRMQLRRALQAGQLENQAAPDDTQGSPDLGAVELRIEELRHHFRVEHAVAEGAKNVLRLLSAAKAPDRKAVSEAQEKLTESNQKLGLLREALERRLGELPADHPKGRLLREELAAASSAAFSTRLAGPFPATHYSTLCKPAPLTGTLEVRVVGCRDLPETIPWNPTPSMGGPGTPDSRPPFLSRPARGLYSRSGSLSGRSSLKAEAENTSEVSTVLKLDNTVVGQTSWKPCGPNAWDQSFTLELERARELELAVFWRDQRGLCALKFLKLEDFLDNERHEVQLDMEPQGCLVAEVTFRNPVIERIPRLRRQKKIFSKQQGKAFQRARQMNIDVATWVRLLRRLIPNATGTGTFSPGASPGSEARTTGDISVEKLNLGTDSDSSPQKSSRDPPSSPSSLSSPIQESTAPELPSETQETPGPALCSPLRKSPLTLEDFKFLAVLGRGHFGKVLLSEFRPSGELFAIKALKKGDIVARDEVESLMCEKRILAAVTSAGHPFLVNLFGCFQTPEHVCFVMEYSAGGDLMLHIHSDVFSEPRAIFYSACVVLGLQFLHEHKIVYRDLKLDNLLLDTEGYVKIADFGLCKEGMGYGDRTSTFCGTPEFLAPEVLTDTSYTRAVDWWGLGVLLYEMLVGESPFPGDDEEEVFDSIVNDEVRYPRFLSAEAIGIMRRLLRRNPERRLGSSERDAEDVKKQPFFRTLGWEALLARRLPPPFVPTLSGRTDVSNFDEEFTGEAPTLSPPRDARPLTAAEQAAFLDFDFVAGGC
Chain of Wee1-like protein kinase (P30291 whole entry): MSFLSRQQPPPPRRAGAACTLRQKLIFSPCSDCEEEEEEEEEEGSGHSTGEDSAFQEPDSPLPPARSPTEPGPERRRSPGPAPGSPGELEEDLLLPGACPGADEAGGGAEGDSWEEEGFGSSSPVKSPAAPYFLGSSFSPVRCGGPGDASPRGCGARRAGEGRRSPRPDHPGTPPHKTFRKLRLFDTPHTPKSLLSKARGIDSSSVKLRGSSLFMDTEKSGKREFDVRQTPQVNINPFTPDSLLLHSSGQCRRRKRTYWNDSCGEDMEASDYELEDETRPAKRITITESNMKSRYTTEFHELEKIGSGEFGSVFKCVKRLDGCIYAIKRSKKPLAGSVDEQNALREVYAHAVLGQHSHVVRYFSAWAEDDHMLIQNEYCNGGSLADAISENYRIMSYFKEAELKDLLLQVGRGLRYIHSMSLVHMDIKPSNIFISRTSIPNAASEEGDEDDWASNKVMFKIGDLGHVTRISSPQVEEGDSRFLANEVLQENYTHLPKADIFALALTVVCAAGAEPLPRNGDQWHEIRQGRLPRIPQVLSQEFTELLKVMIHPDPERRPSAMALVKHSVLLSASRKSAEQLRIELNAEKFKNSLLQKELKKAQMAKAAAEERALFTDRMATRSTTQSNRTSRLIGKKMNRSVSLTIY
Chain of Serine/threonine-protein kinase PAK 2 (Q13177 whole entry): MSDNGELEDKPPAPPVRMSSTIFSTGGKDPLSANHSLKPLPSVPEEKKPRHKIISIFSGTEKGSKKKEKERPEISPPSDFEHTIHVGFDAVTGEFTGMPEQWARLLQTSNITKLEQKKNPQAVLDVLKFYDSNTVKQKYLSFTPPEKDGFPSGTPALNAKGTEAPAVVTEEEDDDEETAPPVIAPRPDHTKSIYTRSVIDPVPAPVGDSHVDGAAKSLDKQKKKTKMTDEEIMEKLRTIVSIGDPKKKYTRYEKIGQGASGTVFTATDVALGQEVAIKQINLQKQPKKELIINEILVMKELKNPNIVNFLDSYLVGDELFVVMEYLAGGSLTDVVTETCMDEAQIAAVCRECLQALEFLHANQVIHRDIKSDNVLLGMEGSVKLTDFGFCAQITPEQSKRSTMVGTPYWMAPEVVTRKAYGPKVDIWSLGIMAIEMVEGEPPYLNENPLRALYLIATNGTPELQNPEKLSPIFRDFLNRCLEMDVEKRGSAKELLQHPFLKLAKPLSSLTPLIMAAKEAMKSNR
Chain of Calcium/calmodulin-dependent protein kinase type II subunit delta (Q13557 whole entry): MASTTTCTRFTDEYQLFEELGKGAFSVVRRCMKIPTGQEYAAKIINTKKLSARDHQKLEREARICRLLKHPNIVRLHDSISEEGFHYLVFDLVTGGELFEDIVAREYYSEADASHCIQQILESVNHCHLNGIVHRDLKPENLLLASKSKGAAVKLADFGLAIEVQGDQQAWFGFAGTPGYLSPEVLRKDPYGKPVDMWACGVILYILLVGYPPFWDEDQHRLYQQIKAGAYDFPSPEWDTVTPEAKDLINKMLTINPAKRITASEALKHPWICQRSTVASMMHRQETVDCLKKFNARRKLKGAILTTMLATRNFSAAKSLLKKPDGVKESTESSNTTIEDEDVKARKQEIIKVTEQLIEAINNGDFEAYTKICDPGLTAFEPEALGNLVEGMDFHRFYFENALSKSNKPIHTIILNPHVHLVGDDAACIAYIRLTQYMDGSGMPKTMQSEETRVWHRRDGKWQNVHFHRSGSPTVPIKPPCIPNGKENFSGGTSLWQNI
Chain of DnaJ homolog subfamily A member 1 (P31689 whole entry): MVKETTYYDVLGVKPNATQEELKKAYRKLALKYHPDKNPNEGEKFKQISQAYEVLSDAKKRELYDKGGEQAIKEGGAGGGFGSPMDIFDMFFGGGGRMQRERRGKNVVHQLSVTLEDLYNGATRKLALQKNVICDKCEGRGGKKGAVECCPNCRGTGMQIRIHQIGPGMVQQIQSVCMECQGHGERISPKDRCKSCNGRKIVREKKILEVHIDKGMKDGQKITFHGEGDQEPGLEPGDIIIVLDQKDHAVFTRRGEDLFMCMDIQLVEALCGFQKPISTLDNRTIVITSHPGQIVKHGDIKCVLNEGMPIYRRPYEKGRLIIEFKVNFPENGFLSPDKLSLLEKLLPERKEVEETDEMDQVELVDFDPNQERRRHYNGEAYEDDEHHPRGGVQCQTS

In the case of `C=CC(=O)Nc1cccc(Nc2nc(Nc3ccc(N4CCN(C(C)=O)CC4)cc3OC)ncc2C(F)(F)F)c1` [ROCILETINIB], the Kd in [1], in [2], in assay [3], in assay [4], in assay [5] and in assay [6] was > 30 µM (inactive) in each case. For the same compound, the Kd (in [7]; at TGF-beta receptor type-1; at Wee1-like protein kinase; in assay [8]) was > 30 µM (inactive) in each case.
For the compound `COc1cc(Nc2ncc(F)c(Nc3ccc4c(n3)N(COP(=O)(O)O)C(=O)C(C)(C)O4)n2)cc(OC)c1OC` [FOSTAMATINIB], the Kd in assay [1], in [2], in assay [3], in assay [4], in [5] and in [6] was > 30 µM (inactive) throughout. Moreover, the Kd (in [7]; on TGF-beta receptor type-1; at Wee1-like protein kinase; in assay [8]) was > 30 µM (inactive) throughout.
Regarding `NC[C@@](O)(c1ccc(Cl)cc1)c1ccc(-c2cn[nH]c2)cc1` [AT-13148], the Kd in assay [1] is > 30 µM (inactive); in assay [2], > 30 µM (inactive); in assay [3] it was > 30 µM (inactive); in assay [4], > 30 µM (inactive); in [5], 0.025 µM (active); in [6], > 30 µM (inactive). Besides, the Kd (in [7]; on TGF-beta receptor type-1; at Wee1-like protein kinase; in assay [8]) was > 30 µM (inactive) in each case.
Consider `O=C(O)c1ccc2c(c1)nc(Nc1cccc(Cl)c1)c1ccncc12` [SILMITASERTIB], for which the Kd was > 30 µM (inactive) in assay [1]; > 30 µM (inactive) in assay [2]; > 30 µM (inactive) in assay [3]; > 30 µM (inactive) in assay [4]; 20.4 µM (active) in [5]; > 30 µM (inactive) in [6]. Moreover, the Kd in [7] was 0.096 µM (active); at TGF-beta receptor type-1, > 30 µM (inactive); on Wee1-like protein kinase it was > 30 µM (inactive); in assay [8], > 30 µM (inactive).
On to `O[C@H]1CC[C@H](Nc2ncc3nc(Nc4c(F)cc(F)cc4F)n([C@H]4CCOC4)c3n2)CC1` [TANZISERTIB], for which the Kd in assay [1], in [2], in assay [3], in [4], in assay [5] and in assay [6] was > 30 µM (inactive) each time. The Kd (in assay [7]; at TGF-beta receptor type-1; at Wee1-like protein kinase; in assay [8]) was > 30 µM (inactive) in each case.
As to `Cn1c(=O)n(-c2ccc(C(C)(C)C#N)cc2)c2c3cc(-c4cnc5ccccc5c4)ccc3ncc21` [DACTOLISIB], the Kd in [1], in assay [2], in assay [3], in [4], in assay [5] and in assay [6] was > 30 µM (inactive) each time. In addition, the Kd (in assay [7]; at TGF-beta receptor type-1; at Wee1-like protein kinase; in assay [8]) was > 30 µM (inactive) in each case.
